Laboratory results published in patent publication US20240207283A1, “WATER SOLUBLE COMPLEX COMPOSITIONS AND METHODS THEREOF” (VETERINARY PHARMACY CORPORATION, priority 2021, published 2024).

Columns and labels:
[1] = generally known; cited from earlier work
[2] = hydrotrope niacinamide

pH above which the clear solution begins to form [2]	SMILES	solubility in methanol [1]	solubility in water [1]
	Cc1cnc(NC(=O)C2=C(O)c3ccccc3S(=O)(=O)N2C)s1 [meloxicam]	slightly soluble in methanol	insoluble in water
above 9.0	CN1C(C(=O)Nc2ccccn2)=C(O)c2ccccc2S1(=O)=O [piroxicam]		
